This is an account of results in patent US8058243B2, “Method for treating a brain cancer with ifenprodil” (HSC Research and Development Limited Partnership, priority 2006, dated 2011).

Structures can show the parent of a compound that is named as a salt. Where two headings read alike, the source gives them in different places.

The assay has as its system murine neural precursor cells (neurosphere cultures). Description: HTS of LOPAC library against secondary neurosphere cultures, MTT proliferation assay at 3 μM, day 7 (z score, P value). Format: cell-based, mouse. Background: Formazan colour is commonly taken as a measure of viable cells.
[1] abbreviates: LOPAC library screen, 3 μM, MTT, secondary neurosphere cultures, day 7.
Setting [2] is: LOPAC primary screen, neurosphere MTT proliferation, 3 μM, day 7.
[3] abbreviates: yes/no: significantly inhibited neurosphere proliferation (P<0.01) in the primary screen.
[4] abbreviates: primary LOPAC screen, 3 μM, MTT, neurosphere proliferation.
[5] abbreviates: yes/no: significantly inhibited neurosphere proliferation in the primary screen.
[6] abbreviates: LOPAC library screen at 3 μM, secondary neurosphere cultures, MTT.
The mark [7] stands for this setting: LOPAC screen, neurosphere MTT proliferation, 3 μM, day 7.
[8] abbreviates: yes/no: significantly inhibited neurosphere proliferation (P<0.01) in primary screen.
Setting [9] is: yes = significantly inhibited neurosphere proliferation (P<0.01) in the primary screen.
The mark [10] stands for this setting: yes/no: significantly inhibited neurosphere proliferation in primary screen.
Where [11] appears, read: LOPAC library screen, 3 μM, MTT, neurosphere cultures.

Consider `COc1ccc2c(c1OC)C(=O)O[C@@H]2[C@H]1c2c(cc3c(c2OC)OCO3)CCN1C.Cl` [Noscapine hydrchloride], for which the “Z Score” value under setting [1] is −2.455. This compound also displayed a Z score under setting [2] of −2.455. Also, under setting [3], the Activity result is “yes”.

In the case of `OCc1ccc(-c2nn(Cc3ccccc3)c3ccccc23)o1` [YC-1], the “Z Score” value is 0.4335. Besides, the Z score under setting [4] worked out at 0.433. The Activity result under setting [5] is “no”.

As to `OCc1cc(C(O)CNCCCCCCOCCCCc2ccccc2)ccc1O` (stereo not drawn) [Salmeterol], the Activity result is given as “no”. Also, the “Z Score” value under setting [6] is recorded as −0.4896. This compound also displayed a Z score under setting [2] of −0.490.

In the case of `N[C@@H]1CONC1=O` (racemic) [DL-Cycloserine], under setting [6], the “Z Score” value was −0.2986. The compound further gave a Z score under setting [7] of −0.299. Also, under setting [8], the Activity result is on record as “no”.

As for `CS(=O)(=O)O.Cc1c(C(=O)c2cccc3ccccc23)c2cccc3c2n1[C@H](CN1CCOCC1)CO3` [(R)-(+)-WIN 55,212-2 mesylate], the “Z Score” value is given as −0.6807. Under setting [4], the Z score was −0.681. Also, the Activity entry under setting [5] is “no”.

Regarding (+)-Cyclazocine, the “Z Score” value is 0.6116. For the same compound, the Z score under setting [7] is recorded as 0.612. Moreover, under setting [8], the Activity result is listed as “no”.

Consider `CCCN(CCc1ccccc1)C1CCc2c(O)cccc2C1.Cl` (stereo not drawn) [(B1)-PPHT hydrochloride], for which the “Z Score” value is −1.915.

Regarding `C[C@@H]1O[C@H](C[N+](C)(C)C)C[C@H]1O.[Cl-]` [(B1)-Muscarine chloride], the “Z Score” value is recorded as −1.905.

As to `COCc1nc2c([nH]1)c(=O)n(C)c(=O)n2CC(C)C` [8-Methoxymethyl-3-isobutyl-1-methylxanthine], the “Z Score” value under setting [6] was −0.3403. For the same compound, the Z score under setting [2] is recorded as −0.340. Also, the Activity entry under setting [9] is listed as “no”.

With `CC(C)(C)C1(O)CCN2CC3c4ccccc4CCc4cccc(c43)C2C1.Cl` (single isomer, unassigned; (+)) [(+)-Butaclamol hydrochloride], under setting [1], the “Z Score” value is given as −11.27. Moreover, under setting [2], the Z score is −11.274. The Activity entry under setting [3] is given as “yes”.

For `Cc1cnc(NC(=O)C2=C(O)c3ccccc3S(=O)(=O)N2C)s1` [Meloxicam sodium], the Activity entry under setting [9] is “no”.

In the case of `Br.CCCN(CCC)C1CCc2ccc(O)cc2C1` (stereo not drawn) [(B1)-7-Hydroxy-DPAT hydrobromide], the “Z Score” value is listed as −11.1.

For the compound `N#CC(C#N)=Cc1cc(O)c(O)c(O)c1` [Tyrphostin 25], the “Z Score” value is listed as −0.2591. Also, the Z score under setting [2] is reported as −0.259. Further, under setting [10], the Activity entry is given as “no”.

With `C[N+](C)(C)CCOC(N)=O` [Carbachol], the “Z Score” value under setting [11] is recorded as −0.03381. The same compound came in with a Z score under setting [7] of −0.034. Also, under setting [8], the Activity entry was “no”.

As to `NC(N)=Nc1nc(CSCCC(N)=NS(N)(=O)=O)cs1` [Famotidine], the Activity result is “no”. For the same compound, the “Z Score” value under setting [11] came out at 0.05489. Further, under setting [2], the Z score turned out to be 0.055.

`C=C(C)[C@@H]1CC=C(C(=O)O)CC1` [(−)-Perilic acid] came in with a Z score under setting [2] of −1.321. For the same compound, the Activity result under setting [10] was “no”.

Turning to `C[N+](C)(C)CCOC(=O)CCC(=O)OCC[N+](C)(C)C` [Succinylcholine chloride], the “Z Score” value is recorded as −1.93. Under setting [2], this compound displayed a Z score of −1.930. Besides, the Activity result under setting [10] was “no”.

For the compound `CCC1(C)CC(=O)NC1=O` (stereo not drawn) [Ethosuximide], the “Z Score” value under setting [6] is −0.6124. The compound also registered a Z score under setting [2] of −0.612. Further, the Activity entry under setting [8] is “no”.

Regarding `CC[C@@H]1C(=O)OC[C@@H]1Cc1cncn1C.Cl` [(+)-Pilocarpine hydrochloride], the “Z Score” value under setting [1] is −1.548. The compound also came in with a Z score under setting [2] of −1.548. Also, the Activity result under setting [9] is given as “no”.

Consider `C[N+](C)(C)CC#CCOC(=O)Nc1cccc(Cl)c1.[Cl-]` [McN-A-343], for which the “Z Score” value was −0.08897. The Z score under setting [7] is on record as −0.089. In addition, the Activity entry under setting [8] is “no”.

Turning to `Cl.O[Si](CCCN1CCCCC1)(c1ccc(F)cc1)C1CCCCC1` (stereo not drawn), the “Z Score” value under setting [1] was −1.492. Also, the Z score under setting [2] was −1.492. Under setting [8], the Activity result was “no”.

In the case of `OC[C@H]1O[C@@H](n2cnc3c(N[C@H]4CC5CCC4C5)ncnc32)[C@H](O)[C@@H]1O` (stereo partly drawn) [(S)-ENBA], the “Z Score” value is 0.2078. The Z score under setting [2] is reported as 0.208. Also, under setting [8], the Activity result is given as “no”.

`CCCn1c(=O)[nH]c(=O)c2[nH]cnc21` [3-n-Propylxanthine]: under setting [6], the “Z Score” value is reported as −1.094. The same compound registered a Z score under setting [2] of −1.094. The Activity result under setting [9] is “no”.

For S(−)-p-Bromotetramisole oxalate, the “Z Score” value is given as −1.295. Moreover, the Z score under setting [2] is −1.295. The Activity result under setting [10] is “no”.

Regarding `NC(=O)c1ncn([C@@H]2O[C@H](CO)[C@@H](O)[C@H]2O)n1` [Ribavirin], the Activity result was “no”.

Take `COc1ccc(CCN(C)CCCC(C#N)(c2ccc(OC)c(OC)c2)C(C)C)cc1OC.Cl` (stereo not drawn) [(B1)-Verapamil hydrochloride]: the “Z Score” value was determined as 1.008.

For `Cn1cnc([N+](=O)[O-])c1Sc1ncnc2nc[nH]c12` [Azathioprine], under setting [1], the “Z Score” value is given as −7.913. This compound also registered a Z score under setting [2] of −7.913. In addition, the Activity entry under setting [9] was “yes”.

Turning to `COc1cc(C(O)CO)ccc1OS(=O)(=O)[O-].[K+]` (stereo not drawn) [MHPG sulfate potassium], the “Z Score” value is on record as −0.5556. Moreover, the Z score under setting [2] was −0.556. Moreover, under setting [8], the Activity entry is recorded as “no”.

Consider `CC12CC3CC(C)(C1)CC(N)(C3)C2` [Memantine hydrochloride], for which, under setting [6], the “Z Score” value is reported as −0.141. The same compound showed a Z score under setting [2] of −0.141. For the same compound, the Activity entry under setting [9] was “no”.

In the case of `CNC(=C[N+](=O)[O-])NCCSCc1ccc(CN(C)C)o1` [Ranitidine hydrochloride], under setting [11], the “Z Score” value is 0.02275. Also, the Z score under setting [2] was 0.023. Further, the Activity result under setting [10] is “no”.

With `COc1ccc2c(c1)c(CC(=O)O)c(C)n2Cc1ccc(F)cc1` [1-(4-Fluorobenzyl)-5-methoxy-2-methylindole-3-acetic acid], for the setting “168 h, 3 µM”, the “Z Score” value is −0.5376 and the Z score is listed as −0.538. The Activity result under setting [8] is on record as “no”.

In the case of (−)-Quinpirole hydrochloride, the “Z Score” value is −1.565 and the Z score is reported as −1.565.

Regarding `CC[C@H](C)[C@H]1O[C@]2(CC[C@@H]1C)C[C@@H]1C[C@@H](C/C=C(\C)[C@@H](O[C@H]3C[C@H](OC)[C@@H](O[C@H]4C[C@H](OC)[C@@H](O)[C@H](C)O4)[C@H](C)O3)[C@@H](C)/C=C/C=C3\CO[C@@H]4[C@H](O)C(C)=C[C@@H](C(=O)O1)[C@]34O)O2` [Ivermectin], the “Z Score” value is on record as 1.507. Moreover, the Z score under setting [2] worked out at 1.507. The Activity entry under setting [8] is “no”.

As for Dextrorphan D-tartrate, the Activity entry is recorded as “no”, the “Z Score” value is recorded as 1.569 and the Z score came to 1.569.

For `CC(Oc1ccc(Oc2cnc3ccc(Cl)cc3n2)cc1)C(=O)O` (stereo not drawn) [XK469], the Activity result was “yes” and the “Z Score” value is on record as −9.355. The compound further gave a Z score under setting [2] of −9.355.

Regarding `N=C(N)NC(=O)c1nc(Cl)c(N)nc1N` [Amiloride hydrochloride], the “Z Score” value under setting [6] is −0.7992. Moreover, the Z score under setting [2] is −0.799. Also, under setting [3], the Activity entry is given as “no”.

Consider `Fc1ccc(C(OCCCc2c[nH]cn2)c2ccc(F)cc2)cc1` [3-(1H-Imidazol-4-yl)propyl di(p-fluorophenyl)methyl ether], for which the Z score under setting [2] was −0.015. In addition, the Activity result under setting [8] was “no”.

In the case of `CCCN(CCC)CCc1cccc2c1CC(=O)N2` [Ropinirole hydrochloride], the Activity entry was “no”. Moreover, where the note is “168 h, 3 µM”, the “Z Score” value is −0.2552 and the Z score is −0.255.

For `Cl.O=C(O)Cc1c[nH]cn1` [Imidazole-4-acetic acid hydrochloride], the “Z Score” value is given as −0.9223. For the same compound, the Z score under setting [2] is −0.922. Moreover, the Activity entry under setting [8] is reported as “no”.

On to `CCCCNc1c(C(=O)OCC)c(C)nc2c1cnn2CC` [Tracazolate], for which, under setting [6], the “Z Score” value is −0.3151. Under setting [4], this compound registered a Z score of −0.315. Besides, the Activity result under setting [5] was “no”.

For the compound `CCN(CC)CCCC(C)Nc1c2ccc(Cl)cc2nc2ccc(OC)cc12` (stereo not drawn) [Quinacrine dihydrochloride], the Activity entry was “yes”. Also, the “Z Score” value under setting [1] is −9.712. This compound also came in with a Z score under setting [2] of −9.712.

Consider `CCCCCCN(CCCCCC)C(=O)Cc1c(-c2ccc(F)cc2)[nH]c2ccccc12` [N,N-Dihexyl-2-(4-fluorophenyl)indole-3-acetamide], for which, under “168 h, 3 µM”, the “Z Score” value worked out at 1.916 and the Z score turned out to be 1.916. Moreover, the Activity entry under setting [8] is “no”.

Regarding `OC[C@H]1O[C@@H](n2cnc3c(NC4CCCCC4)ncnc32)[C@H](O)[C@@H]1O` [N6-Cyclohexyladenosine], the “Z Score” value under setting [1] is reported as −2.883. In addition, under setting [2], the Z score is given as −2.883. Besides, the Activity entry under setting [3] was “yes”.

Take `O=c1[nH]c2ccccc2n1CCCN1CCN(C(c2ccccc2)c2ccccc2)CC1` [Oxatomide]: under setting [11], the “Z Score” value is on record as 0.5957. Under setting [2], this compound returned a Z score of 0.596. The Activity result under setting [10] is reported as “no”.

Take `N=C(NCCC[C@H](N)C(=O)O)N[N+](=O)[O-]` [NG-Nitro-L-arginine]: the “Z Score” value under setting [11] is recorded as 0.1385. In addition, the Z score under setting [2] worked out at 0.139. In addition, the Activity entry under setting [9] is on record as “no”.

In the case of `CNC(=O)Oc1ccc2c(c1)[C@]1(C)CCN(C)[C@@H]1N2C` [(−)-Physostigmine], the “Z Score” value is −0.2178. Further, the Z score under setting [2] was −0.218. Further, the Activity entry under setting [8] is “no”.
